Test results reported in patent publication US20090270363A1, “2-Aryl- and 2-Heteroarylthiazolyl Compounds, Methods for Their Preparation and Use Thereof” (Wyeth, priority 2008, published 2009).

What was measured:
Type in all cases: cell-based
[1] = test system: HCT116 cells (Securin+/+, securin parental, HCT116 FB); experiment: Growth inhibition (sulforhodamine B, 5 days) of securin parental cells; conditions: Homo sapiens, HCT-116, 120 h, SRB
Description: (§1) IC50 analysis was performed for selected fused bicyclic 2-aryl or 2-heteroarylthiazolyl compounds that were tested on HCT116 cells and Securin “knock out” cell lines.
(§2) Cell Culture—HCT116 and securin “knock out” cells. HCT116 and securin “knock out” cells (D8 and F3) were grown in RPMI+5% fetal bovine serum and gentamycin. They were maintained in a humidified 37° C. incubator with 5% CO2. Since the securin “knock out” cells have active chromosomal instability, cells were used at a low passage number of 2-13 passages. At or before passage 13 a new vial of cells was thawed and used for the screen. Cell seeding—HCT116 cells and securin “knock out” cells were trypsinized and suspended in RPMI+5% FBS at a density of 27,000 cells/mL. HCT116 and securin “knock out” cells were seeded separately in wells of a 96-well plate (Falcon Cat # 35-3872) at a cell density of 4000 cells per well. Cells were seeded in 150 μL of RPMI media containing 5% FBS and gentamycin. Cell seeding was performed under aseptic conditions. Cells were allowed to attach and grow overnight in a humidified 37° C. incubator.
(§3) Compound Dilution and Dispensation. A series of stock solutions, 10 mg/mL of fused bicyclic 2-aryl- or 2-heteroarylthiazolyl compounds to be tested, were brought to room temperature. The compounds were diluted 1:50 in RPMI+5% FBS (Highest concentration 200 μg/mL). The compounds were then serially diluted 1:3 across a deep-well titration plate resulting in final concentrations in the plate of 200, 66.7, 22.2, 7.4, 2.4, 0.8, 0.27, 0.091, 0.03, 0.01, and 0.0034 μg/mL with one well left without a compound. 50 μL of this dilution series was added to the 150 μL of cells to result in a final concentration of compound in with the cells of 50, 16.6, 5.5, 1.8, 0.6, 0.2, 0.068, 0.023, 0.0076, 0.0025, and 0.00084 μg/mL. The dilution and addition of compounds to the plates is performed using a Multimek 96 Robot (Beckman Coulter).
(§4) Incubation and analysis. After dosing, the cells in the 96 well plates were returned to the humidified 37° C. incubator. The compounds remained on the cells for 5 days. After 5 days, the cells were fixed to the plates with the addition of 50 μL of 50% (vol/vol) Trichloro Acetic Acid ([…]). The cells were fixed at 4° C. for 1 hour. The plates were washed 5 times in distilled water and allowed to dry. The cells were stained with 0.4% sulforhodamine B (Sigma) in 1% acetic acid. The cells were stained for 15 minutes at room temperature. The plates were then washed 3 times in 1% acetic acid. The plates were dried and the dye was solubilized in 10 mM Tris at pH 8.0. The plates were read on the Absorbence 560 setting on a Victor^2 V Model 1420 Multilabel HTS counter (Perkin Elmer).
(§5) Analysis of Results—IC50 data. Absorbence data was read off of the Victor and was converted to a percentage of the control (untreated) values. IC50 values were graphed and the point at which a 50% inhibition of the control level was determined. […] If the model was not able to determine an IC50, the IC50 was assigned to the lowest concentration that gives a 50% or greater decrease in absorbence compared to control levels. If the calculated IC50 value for a cell line exceeds the top concentration for the assay (typically 50 μg/mL), the assay was scored as >50.
(§6) Selectivity Ratio. The Selectivity Ratio is the ratio of IC50s between the parent cell line and the knock out cell line and is always a positive number and is typically an integer.

[2] = test system: securin "knock out" cells D8 (Securin-/-); experiment: Growth inhibition (sulforhodamine B, 5 days) of securin knock out cells D8; conditions: for IC50: 120 h, securin knock out D8 cells, 5 days, SRB; for Selectivity Ratio D8: IC50 HCT116 / IC50 securin KO D8
Description: as §1, §2, §3, §4, §5, §6

[3] = test system: securin "knock out" cells F3 (Securin-/-); experiment: Growth inhibition (sulforhodamine B, 5 days) of securin knock out cells F3; conditions: for IC50: 120 h, securin knock out F3 cells, 5 days, SRB; for Selectivity Ratio F3: IC50 HCT116 / IC50 securin KO F3
Description: as §1, §2, §3, §4, §5, §6

SMILES | IC50 [1] [µM] | IC50 [2] [µM] | Selectivity Ratio D8 [2] | IC50 [3] [µM] | Selectivity Ratio F3 [3]
Cc1cc(N(C)C)ccc1-c1nc2c(s1)[C@H](O)CCC2 [Example 99, (7R)-2-[4-(dimethylamino)-2-methylphenyl]-4,5,6,7-tetrahydro-1,3-benzothiazol-7-ol] | ≥ 173 | 0.24 | 709 | 0.21 | 810
CC(C)OC(=O)c1cc(N(C)C)ccc1-c1nc2c(s1)C(O)CCC2 (stereo not shown) [Example 111, isopropyl 5-(dimethylamino)-2-(7-hydroxy-4,5,6,7-tetrahydro-1,3-benzothiazol-2-yl)benzoate] | 100 | 1.3 | 75 | 1.4 | 71
C=CCOC(=O)c1cc(N(C)C)ccc1-c1nc2c(s1)C(O)CCC2 (stereo not shown) [Example 112, allyl 5-(dimethylamino)-2-(7-hydroxy-4,5,6,7-tetrahydro-1,3-benzothiazol-2-yl)benzoate] | 97.3 | 0.54 | 182 | 0.72 | 135
CN(C)c1ccc(-c2nc3c(s2)C(O)CCC3)c(C(=O)OCc2ccoc2)c1 (stereo not shown) [Example 116, 3-furylmethyl 5-(dimethylamino)-2-(7-hydroxy-4,5,6,7-tetrahydro-1,3-benzothiazol-2-yl)benzoate] | 85.2 | 0.59 | 145 | 0.82 | 104
CCCOC(=O)c1cc(N(C)C)ccc1-c1nc2c(s1)C(O)CCC2 (stereo not shown) [Example 121, propyl 5-(dimethylamino)-2-(7-hydroxy-4,5,6,7-tetrahydro-1,3-benzothiazol-2-yl)benzoate] | 77.3 | 0.69 | 112 | 1.7 | 44
CN(C)c1ccc(-c2nc3c(s2)C(O)CCC3)c(C(=O)OCc2ccsc2)c1 (stereo not shown) [Example 122, 3-thienylmethyl 5-(dimethylamino)-2-(7-hydroxy-4,5,6,7-tetrahydro-1,3-benzothiazol-2-yl)benzoate] | 42.2 | 0.76 | 55 | 2.1 | 20
CN(C)c1ccc(-c2nc3c(s2)C(O)CCC3)c(C(=O)OCc2cccs2)c1 (stereo not shown) [Example 123, 2-thienylmethyl 5-(dimethylamino)-2-(7-hydroxy-4,5,6,7-tetrahydro-1,3-benzothiazol-2-yl)benzoate] | 90 | 1.7 | 52 | 4.4 | 20
CN(C)c1ccc(-c2nc3c(s2)C(O)CCC3)c(C(=O)OCc2cccnc2)c1 (stereo not shown) [Example 126, pyridin-3-ylmethyl 5-(dimethylamino)-2-(7-hydroxy-4,5,6,7-tetrahydro-1,3-benzothiazol-2-yl)benzoate] | 100 | 1.9 | 54 | 2.5 | 40
CN(C)c1ccc(-c2nc3c(s2)C(O)CCC3)c(C(=O)OCc2ccncc2)c1 (stereo not shown) [Example 127, pyridin-4-ylmethyl 5-(dimethylamino)-2-(7-hydroxy-4,5,6,7-tetrahydro-1,3-benzothiazol-2-yl)benzoate] | 100 | 4.9 | 20 | 6.3 | 16
CN(C)c1ccc(-c2nc3c(s2)C(O)CCC3)c(C(=O)OCc2ccccn2)c1 (stereo not shown) [Example 128, pyridin-2-ylmethyl 5-(dimethylamino)-2-(7-hydroxy-4,5,6,7-tetrahydro-1,3-benzothiazol-2-yl)benzoate] | 86.7 | 1.9 | 45 | 2.6 | 33
C#CCOC(=O)c1cc(N(C)C)ccc1-c1nc2c(s1)C(O)CCC2 (stereo not shown) [Example 129, prop-2-yn-1-yl 5-(dimethylamino)-2-(7-hydroxy-4,5,6,7-tetrahydro-1,3-benzothiazol-2-yl)benzoate] | 77.8 | 0.36 | 216 | 0.45 | 172
C/C=C/COC(=O)c1cc(N(C)C)ccc1-c1nc2c(s1)C(O)CCC2 (stereo not shown) [Example 130, (2E)-but-2-en-1-yl 5-(dimethylamino)-2-(7-hydroxy-4,5,6,7-tetrahydro-1,3-benzothiazol-2-yl)benzoate] | 77.6 | 2 | 38 | 2.4 | 32
CC#CCOC(=O)c1cc(N(C)C)ccc1-c1nc2c(s1)C(O)CCC2 (stereo not shown) [Example 133, but-2-yn-1-yl 5-(dimethylamino)-2-(7-hydroxy-4,5,6,7-tetrahydro-1,3-benzothiazol-2-yl)benzoate] | 96.5 | 1.1 | 87 | 1.8 | 54
CN(C)c1ccc(-c2nc3c(s2)C(O)CCC3)c(Br)c1 (stereo not shown) [Example 140, 2-[2-bromo-4-(dimethylamino)phenyl]-4,5,6,7-tetrahydro-1,3-benzothiazol-7-ol] | 37.2 | 0.57 | 66 | 1.8 | 21
O=[N+]([O-])c1cc(N2CCCC2)ccc1-c1nc2c(s1)C(O)CCC2 (stereo not shown) [Example 151, 2-(2-nitro-4-pyrrolidin-1-ylphenyl)-4,5,6,7-tetrahydro-1,3-benzothiazol-7-ol] | 38 | 0.046 | 832 | 0.053 | 724
C[S+]([O-])c1cc(N2CCCC2)ccc1-c1nc2c(s1)C(O)CCC2 (stereo not shown) [Example 155, 2-[2-(Methylsulfinyl)-4-pyrrolidin-1-ylphenyl]-4,5,6,7-tetrahydro-1,3-benzothiazol-7-ol] | 38.8 | 0.099 | 390 | 0.17 | 224
OC1CCCc2nc(-c3ccc(N4CCCC4)cc3)sc21 (stereo not shown) [Example 158, 2-(4-pyrrolidin-1-yl-phenyl)-4,5,6,7-tetrahydro-benzothiazol-7-ol] | 154 | 1.7 | 91 | 2.9 | 54
COC(=O)c1cc(N2CCCC2)ccc1-c1nc2c(s1)C(O)CCC2 (stereo not shown) [Example 161, 2-(7-Hydroxy-4,5,6,7-tetrahydro-benzothiazol-2-yl)-5-pyrrolidin-1-yl-benzoic acid methyl ester] | 66.3 | 0.4 | 165 | 0.52 | 128
OCc1cc(N2CCCC2)ccc1-c1nc2c(s1)C(O)CCC2 (stereo not shown) [Example 162, 2-(2-Hydroxymethyl-4-pyrrolidin-1-yl-phenyl)-4,5,6,7-tetrahydro-benzothiazol-7-ol] | 15.3 | 0.05 | 304 | 0.046 | 333
OC1CCCc2nc(-c3ccc(N4CCNCC4)cc3)sc21 (stereo not shown) [Example 163, 2-(4-piperazin-1-yl-phenyl)-4,5,6,7-tetrahydrobenzothiazol-7-ol] | 31.6 | 25.9 | 1 | 22.9 | 1
